Assay results from PubChem BioAssay (NCI).
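The compound was tested at five concentrations on cells cultured in 96-well plates, with a 48-hour exposure period. At the TGI there is no net growth.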

Assays:
Assay in all cases: NCI anticancer screen, dose series, 48 h
NCI/ADR-RES ovarian = test system: NCI/ADR-RES ovarian
OVCAR-3 ovarian = test system: OVCAR-3 ovarian
U251 CNS = test system: U251 CNS
SNB-75 CNS = test system: SNB-75 CNS
BT-549 breast = test system: BT-549 breast
KM12 colon = test system: KM12 colon
HOP-62 NSCLC = test system: HOP-62 NSCLC
UACC-257 melanoma = test system: UACC-257 melanoma
NCI-H460 lung = test system: NCI-H460 lung
MDA-MB-435 = test system: MDA-MB-435

| SMILES | TGI (NCI/ADR-RES ovarian) [µM] | TGI (OVCAR-3 ovarian) [µM] | TGI (U251 CNS) [µM] | TGI (SNB-75 CNS) [µM] | TGI (BT-549 breast) [µM] | TGI (KM12 colon) [µM] | TGI (HOP-62 NSCLC) [µM] | TGI (UACC-257 melanoma) [µM] | TGI (NCI-H460 lung) [µM] | TGI (MDA-MB-435) [µM] |
| --- | --- | --- | --- | --- | --- | --- | --- | --- | --- | --- |
| COc1ccc(N=Nc2c(N)nn3c(SC)c(C#N)c(N)nc23)cc1 | 49.8 | 7.1 | 19.5 | 40.6 | 49.6 | 30.2 | 44 | 20.8 | 34.7 | 27.1 |
| CCOC(=O)C1CCC(=O)N1C(=O)c1ccc(Cl)cc1 (stereo not given) | > 100 | > 100 | > 100 | > 100 | > 100 | > 100 | > 100 | > 100 | > 100 | > 100 |
| C=CCNC1=C2C[C@@H](C)C[C@@H](OC)[C@H](OC(=O)CCN(C)C)[C@H](C)/C=C(\C)[C@@H](OC(N)=O)[C@H](OC)/C=C\C=C(/C)C(=O)NC(=CC1=O)C2=O | > 80.3 | 3.61 | 21.1 | 0.741 | 26.4 | 1.98 | 13.4 | 16.7 | 16.1 | 13.2 |
| CCC1CN2CCc3c([nH]c4ccccc34)[C@@](C(=O)OC)(c3cc4c(cc3OC)N(C)C3C(O)(C(=O)OC)C(C(=O)OC)C5(CC)C=CCN6CCC43C65)C[C@@H](C2)[C@@H]1C(C)(C)C (stereo not given in full) | > 7.23 | > 2.85 | > 3.52 | > 10 | > 8.68 | > 5.72 | 1.25 | > 7.97 | 2.34 | 0.462 |
| CCOC(=O)c1cc2c3c(cc(OC)c2[nH]1)N(C(=O)OCC)CC3 | > 100 | > 100 | > 100 | > 100 | > 100 | > 100 | > 100 | > 100 | > 100 | > 100 |
| CC[C@]1(Cc2ccc(OC)c(OC)c2)C=[N+]([O-])O[C@H](OC2CCCC2(c2ccccc2)c2ccccc2)[C@@H]1OC(=O)C(C)(C)C (stereo not given in full) | 5.58 | 2.92 | > 55.6 | 13.4 | > 44.5 | 5.84 | 6.93 | 18.7 | 6.92 | 4.12 |
| NC(N)=NCCCC(NC(=O)c1c2ccccc2nc2ccccc12)C(=O)O (stereo not given) | > 100 | > 100 | > 100 | > 100 | > 100 | > 100 | > 100 | > 100 | > 100 | > 100 |
| c1ccc(Nc2nnc(CCCCCCCCc3nnc(Nc4ccccc4)o3)o2)cc1 | > 100 | > 100 | > 100 | > 100 | > 100 | > 100 | > 100 | > 100 | > 100 | > 100 |
| CC[C@@]12CCC(=S)N(CCSc3ccccc3)[C@@H]1c1c(n(S(=O)(=O)c3ccc(OC)cc3)c3ccccc13)CC2 | > 100 | > 100 | > 100 | > 100 | > 100 | > 100 | > 100 | > 100 | > 100 | > 100 |
| C[n+]1c2ccccc2c(C(=O)Nc2ccc(S(=O)(=O)Nc3ncccn3)cc2)c2ccccc21 | > 100 | > 100 | > 100 | > 100 | > 100 | > 100 | > 100 | > 100 | > 100 | > 100 |
| CC(=O)N1c2cc(N=NN(C)C)ccc2NC(=O)CC1C (stereo not given) | > 100 | > 100 | > 100 | > 100 | > 100 | > 100 | > 100 | > 100 | > 100 | > 100 |
| O=C(NCc1ccccc1Cl)c1c(O)c2ccccc2[nH]c1=O | 56.6 | > 100 | 40.7 | 52.2 | > 100 | > 100 | 41 | > 100 | > 100 | > 100 |
| CC1CCCN1CCCOC(=O)c1ccc(OC2C=CCCC2)cc1 (stereo not given) | > 100 | > 100 | > 100 | 34.6 | > 100 | > 100 | 42.1 | > 100 | 32.9 | > 100 |
| CCCCCCCCCCCCC1N=C(N)NC2(CCCO2)C1C(=O)OC (stereo not given) | 42.9 | 13.2 | 3.2 | 7.99 | 18.5 | 3.34 | 23.8 | 19 | 8.23 | 15.6 |
| COc1cccc(N=NN2CCCC2)c1 | > 100 | > 100 | > 100 | > 100 | > 100 | > 100 | > 100 | > 100 | > 100 | > 100 |
| COC1OC(C(=O)O)C2OC(C)(C)OC12 (stereo not given) | > 100 | > 100 | > 100 | > 100 | > 100 | > 100 | > 100 | > 100 | > 100 | > 100 |

| SMILES | TGI (NCI/ADR-RES ovarian) [µM] | TGI (OVCAR-3 ovarian) [µM] | TGI (U251 CNS) [µM] | TGI (SNB-75 CNS) [µM] | TGI (BT-549 breast) [µM] | TGI (KM12 colon) [µM] | TGI (HOP-62 NSCLC) [µM] | TGI (UACC-257 melanoma) [µM] | TGI (NCI-H460 lung) [µM] | TGI (MDA-MB-435) [µM] |
| --- | --- | --- | --- | --- | --- | --- | --- | --- | --- | --- |
| Cc1cc2occ(S(=O)(=O)NC(=O)Nc3ccc(Cl)cc3)c(=O)c2c(=O)o1 | > 100 | > 100 | > 100 | > 100 | > 100 | > 100 | > 100 | > 100 | > 100 | > 100 |
| O=C1C=C/C(=C/[C@H]2SSC=C[C@]23C=CC(=O)C3)C1 | 68.1 | 85.6 | > 100 | > 100 | 46.8 | 46.6 | > 73.8 | 99.8 | > 94.3 | > 53.1 |
| O=C1C2CC[C@@H]3C(=O)C(Cl)(Cl)[C@@H]3CCC2C1(Cl)Cl (stereo not given in full) | > 100 | > 100 | > 100 | > 100 | > 100 | > 100 | > 29.7 | > 100 | > 100 | > 100 |
| CC(NNC(=O)c1ccncc1)c1ccc(Cl)cc1Cl (stereo not given) | > 100 | > 100 | > 100 | > 100 | > 100 | > 100 | > 100 | > 100 | > 100 | > 100 |
| N#CC(NNC(=O)c1ccccc1O)c1c(O)ccc2ccccc12 (stereo not given) | 19.3 | 23.8 | 37.1 | 48.3 | > 54.8 | > 100 | 29.5 | 24.9 | 36.8 | 43.4 |
| Cc1cc(C)nc(NS(=O)(=O)c2ccc(Nc3c4ccccc4nc4ccc(C(=O)Nc5ccc(S(=O)(=O)N=C(N)N)cc5)cc34)cc2)n1 | > 100 | > 100 | > 100 | > 100 | 95.2 | > 100 | > 100 | > 100 | > 100 | > 100 |
| S=c1[nH]nc(CCCCCCCCc2n[nH]c(=S)o2)o1 | > 100 | > 100 | > 100 | > 100 | > 100 | > 100 | > 100 | > 100 | > 100 | > 100 |
| CCCCCCCCCCCCC1N=C(N)N2CCCC2=C1C(=O)OC (stereo not given) | 20.4 | 5.11 | 3.06 | 3.05 | 35 | 3.94 | 9.95 | 3.73 | 3.23 | 3.09 |
| COc1cccc(CCCNC(=O)Cc2ccccc2CO)c1 | > 100 | > 100 | > 100 | > 100 | > 100 | > 100 | > 100 | > 100 | > 100 | > 100 |
| C/C(=N\NC(=S)N1CCOCC1)c1nc2ncccc2[nH]1 | > 100 | > 100 | 81.8 | 44.1 | > 100 | > 100 | 96 | 77.4 | > 100 | > 100 |
| O=C(O)CCC1NC(/C(=C/c2ccccc2O)NC(=O)c2ccccc2)OC1=O (stereo not given) | > 100 | > 100 | > 100 | 72.4 | > 100 | > 100 | 62.4 | > 100 | > 100 | > 100 |
| C/C(Nc1ccc(Cl)cc1)=C1/CCOC1=O | > 100 | > 100 | > 100 | > 100 | > 100 | > 100 | > 100 | > 100 | > 100 | > 100 |
| CC(=O)C(C(C)=O)[C@H]1OC(C)(C)O[C@H]1[C@H]1COC(C)(C)O1 | > 100 | > 100 | 79.9 | > 100 | 90.5 | > 100 | > 100 | > 100 | > 100 | > 100 |
| S=c1[nH]n2c(COc3cc(Cl)c(OCc4nnc5sc(=S)[nH]n45)cc3Cl)nnc2s1 | > 100 | > 100 | > 100 | > 100 | > 100 | > 100 | > 100 | > 100 | > 100 | > 100 |
| CCCCCCCc1ccc(-c2nnc(N=Nc3ccc(OCCCCC)cc3)s2)s1 | > 100 | > 100 | > 100 | > 100 | > 100 | > 100 | > 100 | > 100 | > 100 | > 100 |
